Patent US20090181392A1, “Transgenic Zebrafish Models for Neurodegenerative Diseases” (priority 2001, published 2009)
Entries after “also recorded” stand apart in the source; their conditions may differ.

Test system: dopaminergic neurons in zebrafish embryos
Test: MPTP neurotoxicity and neuroprotection in zebrafish embryos, whole mount in situ hybridization with tyrosine hydroxylase probe
Format: in vivo, zebrafish (Danio rerio)
Conditions: for protection of neurons from MPTP-induced damage: coculture/coincubation of embryos with MPTP 10 μg/mL (43 μM)
Protocol: Mating pairs of adult zebrafish are placed in mating cages in the evening. The following morning, eggs are collected from the bottom of the mating cage and fertile embryos are placed in fresh fish water. At the end of the day, (embryos should be at the late gastrulation stage) phenylthiourea (PTU, Sigma-Aldrich) is added to a final concentration of 0.003% to prevent formation of pigment. At approximately 24 hours past fertilization (hpf), embryos are transferred to a 24 or 96 well plate for treatment in different concentrations of neurotoxins. Zebrafish embryos at this stage in development have completed much of their brain development and primary neurogenesis (Kimmel, et al., 1995). Motor neurons and some dopaminergic neurons are detectable at this stage (Eisen, et al., 1986; Guo, et al., 1999).
Initial concentrations of neurotoxins, including MPTP, hydroxydopamine, NMDA and THA (all purchased from Sigma-Aldrich), are determined based on the concentrations administered to goldfish (Goping, et al., 1995) and that used in cultured spinal cord explant experiments (Rothstein, et al., 1993; Annis and Vaugn, 1998). One of skill can adjust the concentrations depending on the level of neuronal damage desired and the time frame for neuronal damage.
After embryos are secured in plates with lids, plates are transferred to an incubator, preset to 28.5° C., the optimal temperature for zebrafish development. At different time points (1, 2, and 3 days after treatment), untreated embryos and embryos treated with MPTP or hydroxydopamine are fixed in 4% paraformaldehyde and prepared for in situ hybridization and/or immunohistochemistry.
In situ hybridization is performed as described by Thisse, et al. (1993). A plasmid containing a partial cDNA sequence encoding tyrosine hydroxylase was obtained from A. Rosenthal (Guo, et al., 1999). An antisense RNA probe to this gene can be synthesized by in vitro transcription, incorporating digoxygenin-labeled UTP (Roche Molecular Biochemicals). Embryos are hybridized with probe overnight at 70 degrees in 50% formamide buffer. After several washes, embryos are incubated overnight with an antibody to digoxygenin conjugated to alkaline phosphatase (Roche Molecular Biochemicals). […]
This study is performed essentially as described above, except that neuroprotective drugs (levodopa, deprenyl, and D-AP5, Sigma-Aldrich) are added to the embryo cultures at selected time points, both concurrently with neurotoxins and after neurotoxins have exerted their effects. Initial concentrations are determined based on that used in goldfish and tissue culture expeirments. Again, results are measured by examination of neurons in both a qualitative and quantitative manner, as described above. […]

Row | SMILES | protection of neurons from MPTP-induced damage | protection of neurons from MPTP-induced damage (listed as deprenyl) | effect on non-dopaminergic cell populations (MPTP 10 μg/mL (43 μM), 5 day old embryo, tyrosine hydroxylase in situ hybridization (FIG. 2)) | effect on dopaminergic neurons / dopaminergic populations (MPTP 10 μg/mL (about 43 μM), embryos soaked, 5 day old embryo, tyrosine hydroxylase in situ hybridization (FIG. 2))
1 | C#CCN(C)[C@H](C)Cc1ccccc1 [L-deprenyl] | MPTP-induced damage can be prevented | protects neurons |  | 
2 | CN1CC=C(c2ccccc2)CC1 [MPTP, 1-methyl-4-phenyl-1,2,3,6-tetrahydropyridine] |  |  | unchanged | destroys dopaminergic populations; also recorded: significantly reduced
